These are literature values, as cited in US20050227966A1 (Wyeth, priority 2004, published 2005).

SMILES strings stand for the structures.

The test system of data set [1] is ovariectomized rat model of osteopenia.
Another data set relates to uterine response. Conditions: preclinical models of uterine stimulation.
For data set [2], the system named is MCF-7 cell line (human breast cancer cell line). To be noted: MCF-7 cells.

`Cc1c(-c2ccc(O)cc2)n(Cc2ccc(OCCN3CCCCCC3)cc2)c2ccc(O)cc12` [bazedoxifene acetate, 1-[4-(2-azepan-1-yl-ethoxy)-benzyl]-2-(4-hydroxy-phenyl)-3-methyl-1H-indol-5-ol acetic acid]: the “effect in preventing bone loss and reducing cholesterol” value in data set [1] was “estrogen agonist-like effect”. The “stimulation of uterine response” value with uterine response was “little or no stimulation”. Moreover, the estrogen agonist/antagonist behaviour result in data set [2] is “estrogen antagonist”.
